From patent publication US10501473B2, “Fused heterocyclic ring compounds and method of treating retinal disease using same” (THE INDUSTRY & ACADEMIC COOPERATION IN CHUNGNAM NATIONAL …, priority 2014, dated 2019) come the findings set out here.

For experiment [1], the target named is RIPK1 (receptor-interacting serine/threonine-protein kinase 1) (Homo sapiens (Human), UniProt Q13546). In words: RIPK1 inhibitory activity, autophosphorylation of immuno-precipitated RIPK1 with [32P]γ-ATP. The class given is biochemical. The settings on record: for inhibition at 100 µM: Table 2, 100 μM; for activity at 100 µM: compound 100 μM, remaining RIPK1 phosphorylation. How it is done:
The following experiment was performed to evaluate RIPK1 (receptor-interacting serine/threonine-protein kinase 1) inhibitory activity of the compounds of examples of the invention.
RIPK1 enzyme immuno-precipitated in HEK293 (Human Embryonic Kidney 293) cell lysate was used as kinase. The experiment was performed according to the method described in Cell. 12; 137(6):1112-23(2009). RIPK1 protein was over-expressed in HEK293 cell line, to which lysis buffer (50 mM Tris-Cl [pH 8.0], 150 mM NaCl, 1 mM EDTA, 1% NP-40, 0.4 mM phenylmethylsulfonyl fluoride (PMSF)) was added for cell lysis. Centrifugation was performed at 13,000 rpm for 10 minutes to separate the supernatant. RIPK1 monoclonal antibody (610459, BD Bioscience) and A/G agarose beads (sc-2003, Santa Cruz Biotechnology) were added thereto, followed by immuno-precipitation in a 4° C. rotator for 12 hours.
The immune complex was washed with lysis buffer twice and then washed with kinase assay buffer (20 mM HEPES [pH7.6], 2 mM DTT, 1 mM NaF, 1 mM Na3Vo4, 20 mM β-glycerophosphate, 20 mM PNPP, 20 mM MgCl2, 20 mM MnCl2, 1 mM Benzamidie, and 1 mM EDTA) lastly. Kinase assay buffer and the compound were added to the RIPK1 immuno-precipitate, followed by reaction in a 24° C. constant-temperature water bath for 15 minutes. Additional reaction was induced for 30 minutes at 30° C. after 100 μM of ATP and 10 μCi[^32P] γ-ATP were added thereto. The reaction mixture was washed with kinase assay buffer once, to which protein loading buffer was added, followed by heating at 100° C. for 3 minutes. The reaction mixture was then loaded on 8% SDS-PAGE gel. Radioactive image of the phosphorylated RIPK1 was detected with FLA-7000 (GE healthcare). The image Quant TL program was used for the quantification.

Experiment [2] has as its system RGC-5 (rat ganglion cell). In words: Retinal nerve protection under oxygen-glucose deprivation (OGD), LDH assay. The settings on record: RGC-5, OGD 15 hours, compound 20 μM, DMSO control = 100%. Type of experiment: cell-based. How it is done: The following experiment was performed to evaluate the protective effect of the compounds of examples of the invention on the retinal nerve under oxygen-glucose deprivation condition.
The retinal ganglion cell line RGC-5 (rat ganglion cell) was cultured in DMEM (Dulbecco's modified Eagle's medium) supplemented with 10% FBS (fetal bovine serum) and 1% penicillin/streptomycin. The cells were distributed in a 96-well plate at the density of 8×10^3 cells/well, followed by culture in a 37° C., CO2 incubator for 12 hours. The cells were washed with PBS once and the medium was replaced with glucose free DMEM. The cells were treated with either DMSO (0.1%) alone (control) or with the compounds of examples (20 μM) shown in Table 3, followed by culture in an anaerobic incubator (10% H2, 5% CO2, 85% N2, 37° C., chamber (ThermoForma, USA)) for 15 hours to induce cell death.
The level of cell death was measured by LDH (lactate dehydrogenase, Roche) assay. The LDH assay is a method for measuring the activity of LDH released from the damaged cells into the culture medium. NAD^+ was reduced to NADH and H^+ by LDH, and the bond of tetrazolium salt INT ring was cleaved by diaphorase to form formazan. Absorbance of the formazan was measured at 490 nm by using Victor 3 (PerkinElmer). The absorbance reflects the amount of dead cells.
The level of the control LDH under oxygen-glucose deprivation condition was regarded as 100%, and the level of LDH in the cell group cultured in normal medium (10% FBS, DMEM) for the same time was regarded as 0%. Based on that, the levels of LDH of the cell groups treated with the compounds of the invention under oxygen-glucose deprivation condition were converted into the relative ratio of cell death. The compounds of examples of the invention were treated to wells, each compound for three wells, and then each experiment was performed in triplicate.

Chain of RIPK1 (receptor-interacting serine/threonine-protein kinase 1) (Q13546 whole entry, species assumed): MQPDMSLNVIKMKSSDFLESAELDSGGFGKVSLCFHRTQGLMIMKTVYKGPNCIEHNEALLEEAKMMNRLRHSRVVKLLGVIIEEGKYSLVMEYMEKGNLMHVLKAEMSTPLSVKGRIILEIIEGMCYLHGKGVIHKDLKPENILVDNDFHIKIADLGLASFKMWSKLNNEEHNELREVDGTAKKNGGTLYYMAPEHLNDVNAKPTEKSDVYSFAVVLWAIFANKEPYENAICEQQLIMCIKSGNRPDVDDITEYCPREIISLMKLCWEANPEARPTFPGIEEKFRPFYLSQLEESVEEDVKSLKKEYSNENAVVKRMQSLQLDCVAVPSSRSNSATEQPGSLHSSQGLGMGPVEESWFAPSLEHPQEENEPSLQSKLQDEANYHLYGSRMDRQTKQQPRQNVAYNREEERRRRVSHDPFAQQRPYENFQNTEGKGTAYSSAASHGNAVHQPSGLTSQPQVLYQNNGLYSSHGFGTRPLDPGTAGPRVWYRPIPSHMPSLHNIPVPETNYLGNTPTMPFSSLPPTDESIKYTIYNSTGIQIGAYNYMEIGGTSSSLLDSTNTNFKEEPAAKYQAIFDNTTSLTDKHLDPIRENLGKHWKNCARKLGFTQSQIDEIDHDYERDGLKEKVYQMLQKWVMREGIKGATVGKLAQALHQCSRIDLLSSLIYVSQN

On to `O=C(c1cc2c(OCc3ccc(F)cc3)cccc2s1)N1CCOCC1` [Example 61, (4-(4-fluorobenzyloxy)benzo[b]thiophene-2-yl)(morpholino)methanone], for which, in experiment [1], the inhibition (usually the relative decrease from the control value, in per cent) at 100 µM is at least 50% and the activity at 100 µM was 22.5 ± 12%. Also, the “Death of retinal nerve cell (%)” value in experiment [2] came to 53.5 ± 14.5%.
Compound `CCN(CC)C(=O)c1cccc2sc(C(=O)N3CCOCC3)cc12` [Example 20, N,N-diethyl-2-(morpholine-4-carbonyl)benzo[b]thiophene-4-carboxamide] gave an activity at 100 µM in experiment [1] of 77 ± 12.5%. The “Death of retinal nerve cell (%)” value in experiment [2] turned out to be 43.6 ± 8.5%.
In experiment [1], `Cn1cc(-c2cccc3sc(C(=O)N4CCOCC4)cc23)cn1` [Example 73, (4-(1-methyl-1H-pyrazol-4-yl)benzo[b]thiophene-2-yl)(morpholino)methanone] came in with an inhibition at 100 µM of at least 50% and an activity at 100 µM of 22 ± 19.8%. For the same compound, in experiment [2], the “Death of retinal nerve cell (%)” value is reported as 62.3 ± 10.1%.
Regarding `O=C(c1cc2c(Oc3ccc(F)cc3)cccc2s1)N1CCOCC1` [Example 59, (4-(4-fluorophenoxy)benzo[b]thiophene-2-yl)(morpholino)methanone], in experiment [1], the inhibition at 100 µM was at least 50% and the activity at 100 µM is 21 ± 7.1%. Also, the “Death of retinal nerve cell (%)” value in experiment [2] is 59.5 ± 14.7%.
Turning to `Cn1c(C#N)ccc1-c1cccc2sc(C(=O)N3CCOCC3)cc12` [Example 72, 1-methyl-5-(2-(morpholine-4-carbonyl)benzo[b]thiophene-4-yl)-1H-pyrrole-2-carbonitrile], the activity at 100 µM in experiment [1] was determined as 7 ± 8.5%. Also, the “Death of retinal nerve cell (%)” value in experiment [2] amounted to 58.5 ± 16.1%.
Take `O=C(c1cc2ccc3ccccc3c2s1)N1CCOCC1` [Example 6, morpholino(naphtho[1,2-b]thiophene-2-yl)methanone]: in experiment [1], the inhibition at 100 µM was at least 50% and the activity at 100 µM turned out to be 48.5 ± 23.3%. Also, the “Death of retinal nerve cell (%)” value in experiment [2] was 30.7 ± 1.06%.
With `O=C(c1cc2c(-c3ccc(OC(F)(F)F)cc3)cccc2s1)N1CCOCC1` [Example 45, morpholino(4-(4-(trifluoromethoxy)phenyl)benzo[b]thiophene-2-yl)methanone], in experiment [1], the activity at 100 µM came to 86.7 ± 34.6%. In addition, the “Death of retinal nerve cell (%)” value in experiment [2] turned out to be 89.4 ± 14.0%.
In experiment [1], `O=C(c1cc2c(CCc3ccc(F)cc3)cccc2s1)N1CCOCC1` [Example 60, (4-(4-fluorophenethyl)benzo[b]thiophene-2-yl)(morpholino)methanone] gave an inhibition at 100 µM of at least 50% and an activity at 100 µM of 22 ± 15.6%. Besides, the “Death of retinal nerve cell (%)” value in experiment [2] worked out at 89.8 ± 10.7%.
In experiment [1], `CC(=O)Nc1ccc(-c2cccc3sc(C(=O)N4CCOCC4)cc23)cc1` [Example 10, N-(4-(2-(morpholine-4-carbonyl)benzo[b]thiophene-4-yl)phenyl)acetamide] showed an activity at 100 µM of 62.5 ± 16.8%. In addition, the “Death of retinal nerve cell (%)” value in experiment [2] was 49.0 ± 7.0%.
Compound `O=C(c1cc2c(NS(=O)(=O)c3ccc(F)cc3)cccc2s1)N1CCOCC1` [Example 70, 4-fluoro-N-(2-(morpholine-4-carbonyl)benzo[b]thiophene-4-yl)benzenesulfonamide] displayed an activity at 100 µM in experiment [1] of 65 ± 32.5%. For the same compound, the “Death of retinal nerve cell (%)” value in experiment [2] is 48.7 ± 10.3%.
Taken in the same sequence, the figures for `Cl.O=C(c1cc2c(-c3ccc(F)nc3)cccc2s1)N1CCOCC1` [Example 66, (4-(6-fluoropyridine-3-yl)benzo[b]thiophene-2-yl)(morpholino)methanone hydrochloride] were 11.5 ± 4.9% and 45.2 ± 10.5%.
In experiment [1], `COc1ccc(-c2cccc3sc(C(=O)N4CCOCC4)cc23)cn1` [Example 55, (4-(6-methoxypyridine-3-yl)benzo[b]thiophene-2-yl)(morpholino)methanone] registered an inhibition at 100 µM of at least 50% and an activity at 100 µM of 43 ± 7.1%. For the same compound, in experiment [2], the “Death of retinal nerve cell (%)” value is listed as 47.2 ± 12.4%.
`O=C(c1cc2c(SCc3ccc(F)cc3)cccc2s1)N1CCOCC1` [Example 71, (4-(4-fluorobenzylthio)benzo[b]thiophene-2-yl)(morpholino)methanone] yielded an activity at 100 µM in experiment [1] of 87 ± 4.2%. The “Death of retinal nerve cell (%)” value in experiment [2] was found to be 89.1 ± 14.9%.
For `O=C(c1cc2cc(O)ccc2[nH]1)N1CCOCC1` [Example 11, (5-hydroxy-1H-indole-2-yl)(morpholino)methanone], the activity at 100 µM in experiment [1] came to 70.7 ± 28.5%. Besides, the “Death of retinal nerve cell (%)” value in experiment [2] is reported as 41.1 ± 3.1%.
For `O=C(c1cc2cc(-c3ccc(F)cc3)ccc2s1)N1CCOCC1` [Example 40, (5-(4-fluorophenyl)benzo[b]thiophene-2-yl)(morpholino)methanone], in experiment [1], the activity at 100 µM is 57.5 ± 12%. Also, the “Death of retinal nerve cell (%)” value in experiment [2] was 68.2 ± 11.2%.
In experiment [1], `CN1CCN(C(=O)c2cc3c(-c4ccc(F)cc4)cccc3s2)CC1.Cl` [Example 49, (4-(4-fluorophenyl)benzo[b]thiophene-2-yl)(4-methylpiperazine-1-yl)methanone hydrochloride] displayed an inhibition at 100 µM of at least 50% and an activity at 100 µM of 27 ± 5.7%. For the same compound, the “Death of retinal nerve cell (%)” value in experiment [2] is recorded as 43.8 ± 13.7%.
For the compound `O=C(c1cc2c(-c3ccc(F)cc3)cccc2s1)N1CCC(O)CC1` [Example 48, (4-(4-fluorophenyl)benzo[b]thiophene-2-yl)(4-hydroxypiperidine-1-yl)methanone], in experiment [1], the inhibition at 100 µM was at least 50% and the activity at 100 µM came out at 25.5 ± 0.7%. Also, the “Death of retinal nerve cell (%)” value in experiment [2] is 47.7 ± 13.2%.
In experiment [1], `O=C(c1cc2c(Nc3ccc(F)cc3)cccc2s1)N1CCOCC1` [Example 68, (4-(4-fluorophenylamino)benzo[b]thiophene-2-yl)(morpholino)methanone] returned an inhibition at 100 µM of at least 50% and an activity at 100 µM of 33.5 ± 12%. The “Death of retinal nerve cell (%)” value in experiment [2] is reported as 58.3 ± 11.9%.
In experiment [1], `CN(c1ccc(F)cc1)c1cccc2sc(C(=O)N3CCOCC3)cc12` [Example 69, (4-((4-fluorophenyl)(methyl)amino)benzo[b]thiophene-2-yl)(morpholino)methanone] displayed an inhibition at 100 µM of at least 50% and an activity at 100 µM of 22.5 ± 16.3%. For the same compound, the “Death of retinal nerve cell (%)” value in experiment [2] turned out to be 69.4 ± 10.9%.
Compound `O=C(c1cc2c(Cc3ccc(F)cc3F)cccc2s1)N1CCOCC1` [Example 57, (4-(2,4-difluorobenzyl)benzo[b]thiophene-2-yl)(morpholino)methanone] came in with an activity at 100 µM in experiment [1] of 20 ± 14.1%. Besides, in experiment [2], the “Death of retinal nerve cell (%)” value came to 89.1 ± 16.9%.
Regarding `NC(=O)c1ccc(-c2cccc3sc(C(=O)N4CCOCC4)cc23)cc1` [Example 43, 4-(2-(morpholine-4-carbonyl)benzo[b]thiophene-4-yl)benzamide], in experiment [1], the activity at 100 µM stood at 58.5 ± 17.7%. Besides, in experiment [2], the “Death of retinal nerve cell (%)” value is 62.3 ± 1.7%.
In the case of `Nc1cccc(-c2cccc3sc(C(=O)N4CCOCC4)cc23)c1` [Example 42, (4-(3-aminophenyl)benzo[b]thiophene-2-yl)(morpholino)methanone], in experiment [1], the inhibition at 100 µM was at least 50% and the activity at 100 µM was determined as 35.5 ± 3.9%. In experiment [2], the “Death of retinal nerve cell (%)” value amounted to 57.2 ± 11.2%.
As for `O=C(c1cc2c(-c3ccc(F)cc3)cncc2s1)N1CCOCC1` [Example 2, (4-(4-fluorophenyl)thieno[2,3-c]pyridine-2-yl)(morpholino)methanone], in experiment [1], the inhibition at 100 µM was at least 50% and the activity at 100 µM was found to be 45 ± 12.7%.
